Here are results for five molecules from paper PMC12676205, “New Se‐Compounds With Antileishmanial, Antitumor, and Carbonic Anhydrase Inhibitory Properties” (Archiv Der Pharmazie, 2025).

The target in data set [1] is T1, hCA I (Homo sapiens, UniProt P00915).
T1 construct: made in house
In words: hCA I inhibition, stopped-flow CO2 hydration assay. The data set is classed as biochemical. Conditions: stopped flow technique, mean from three assays.
Procedure: (§4) An Applied Photophysics stopped‐flow instrument was used to assay the CA‐catalyzed CO2 hydration activity [52]. […] The uncatalyzed rates were determined in the same manner and subtracted from the total observed rates. Stock solutions of the inhibitor (0.1 mM) were prepared in distilled–deionized water, and dilutions up to 0.01 nM were done thereafter with the assay buffer. Inhibitor and enzyme solutions were preincubated together for 15 min at room temperature before the assay, to allow for the formation of the E–I complex. The inhibition constants were obtained by Nonlinear least‐squares methods using PRISM 3 and the Cheng‐Prusoff equation as reported earlier and represent the mean from at least three different determinations. All CA isoforms were recombinant proteins obtained in‐house, as reported earlier [54, 55, 56].

Data set [2] has as its target T2, hCA IX (Homo sapiens, UniProt Q16790).
T2 construct: made in house
Nature of the data set: biochemical. To be noted: stopped flow technique, mean from three assays.
Procedure: as §4

For data set [3], the target named is T3, hCA XII (Homo sapiens, UniProt O43570).
T3 construct: made in house
T3 sequence (O43570 25-354): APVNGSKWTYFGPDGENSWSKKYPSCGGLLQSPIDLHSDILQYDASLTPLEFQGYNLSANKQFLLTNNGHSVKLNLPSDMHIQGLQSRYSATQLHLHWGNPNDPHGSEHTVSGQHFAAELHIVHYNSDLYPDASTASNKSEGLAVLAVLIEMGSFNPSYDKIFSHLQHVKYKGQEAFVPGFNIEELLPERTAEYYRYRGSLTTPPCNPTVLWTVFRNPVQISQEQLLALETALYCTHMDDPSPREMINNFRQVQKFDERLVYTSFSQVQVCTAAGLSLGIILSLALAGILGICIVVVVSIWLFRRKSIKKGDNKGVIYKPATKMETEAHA
Nature of the data set: hCA XII inhibition, stopped-flow CO2 hydration assay. The format is biochemical. Conditions: stopped flow technique, mean from three assays.
Procedure: as §4

Data set [4] concerns NCI‐60 human cancer cell lines. Nature of the data set: NCI-60 five-dose assay, whole panel. The format is cell-based. To be noted: 48 h, bound for every subpanel. How it is done:
(§1) All the compounds were selected for further testing since they fulfilled the set NCI one‐dose screening parameters for threshold inhibition. They were tested at five different concentrations (0.01, 0.1, 1, 10, and 100 μM) for 48 h against the same cell line panel and the dose–response curves along with three response parameters (50% growth inhibitory concentration [GI50], the 50% lethal concentration [LC50], and the total growth inhibition [TGI]) were calculated for every cancer cell line. The full reported data and corresponding graphs are compiled in Supporting Information S1. Average values of GI50, TGI, and LC50 values of all the reported selenoesters in all the subpanels are represented in Figure 4.
(§2) All the reported selenoesters (1–6) were submitted to the DTP of NCI. First, they were screened at a single dose (10^−5 M) against a panel of 60 cancer cell lines derived from different tumor types following the methodology available (https://dtp.cancer.gov/discovery_development/nci-60/methodology.htm). As all the compounds satisfied the threshold inhibition criteria established, they were further assessed at five concentrations (0.01, 0.1, 1, 10, and 100 µM) against the same cell panel to obtain their corresponding dose–response curves and three antitumor parameters (GI50, TGI, and LC50) by regression. GraphPad Prism 7.0 Software was used to represent the corresponding graphs.

Data set [5] has as its system Melanoma subpanel. Nature of the data set: NCI-60 five-dose assay, melanoma subpanel. To be noted: Homo sapiens, 48 h; for GI50: read-out: Mean GI50 Melanoma; for LC50 (50% lethal concentration): read-out: Mean LC50 Melanoma. The data set is classed as cell-based. How it is done:
as §1, §2

Data set [6] concerns breast cancer cell line HS 578 T. Nature of the data set: NCI-60 five-dose assay, HS 578 T. The format is cell-based, human. Conditions: 48 h; for GI50: Homo sapiens, Hs-578T. Here is the method: as §1, §2
The test system of data set [7] is A498 renal‐resistant cells. In words: NCI-60 five-dose assay, A498. Conditions: Homo sapiens, 48 h. The data set is classed as cell-based. How it is done:
as §1, §2

The subject of data set [8] is OVCAR‐5 ovarian cancer cells. Nature of the data set: NCI-60 five-dose assay, OVCAR-5. The data set is classed as cell-based, human. To be noted: 48 h. Here is the method: as §1, §2
The subject of data set [9] is HOP‐62. Nature of the data set: NCI-60 five-dose assay, HOP-62. The data set is classed as cell-based. To be noted: Homo sapiens, 48 h. How it is done: as §1, §2
The test system of data set [10] is MALME‐3M. In words: NCI-60 five-dose assay, MALME-3M. To be noted: Homo sapiens, 48 h. The data set is classed as cell-based. How it is done: as §1, §2
In data set [11] the test system is HL‐60(TB) cells. In words: NCI-60 one-dose screen, HL-60(TB). The data set is classed as cell-based, human. To be noted: 10 µM, 48 h. Here is the method:
(§3) To explore the potential antiproliferative properties of the newly synthesized derivatives, they were submitted to the National Cancer Institute's (NCI) Developmental Therapeutics Program (DTP) for screening at 10 μM in a panel of approximately 60 human cancer cell lines from different cancer types. The results are reported as the growth percentage (GP), which is the growth of the treated cells with each compound for 48 h compared to the untreated controls (Figure 2). […] The initial screening results are summarized in Figure 2, and the mean GP values of each subpanel are depicted in Figure 3. The full reports are compiled in the Supplementary Section.
as §2

For data set [12], the system named is HT29 colon cancer cell line. Nature of the data set: NCI-60 one-dose screen, HT29. The format is cell-based, human. To be noted: 10 µM, 48 h. Here is the method:
as §3, §2

For data set [13], the system named is THP‐1 cells. Nature of the data set: THP-1 cytotoxicity (MTT, PMA-differentiated macrophages). The format is cell-based, human. To be noted: 48 h, mean ± SD. Here is the method: The synthesized compounds were tested for their antileishmanial activity against promastigotes of L. major and L. infantum at four concentrations (1, 10, 50, and 100 µM) for 48 h using the 3‐(4,5‐dimethylthiazol‐2‐yl)‐2,5‐diphenyltetrazolium bromide (MTT) assay. In this evaluation, the activity was expressed in IC50 (concentration inhibiting the parasite growth by 50%). […] The CC50 was defined as the concentration of selenoesters that led to a reduction in the viability of the macrophages, such that only 50% of the cells survived when compared to the control group. This cell line, derived from the blood of a human with acute monocytic leukemia, was chosen as it has been widely reported that it resembles tissue macrophages to various extents as well as supports the infection by numerous Leishmania promastigotes. The selectivity indexes (SIs) were calculated as the ratio between toxicity on macrophages (THP‐1 cells)/antileishmanial activity. The data for standard control drugs (miltefosine and paromomycin) are included for comparison purposes.
THP‐1 cells were seeded at a concentration of 8 × 10^4 cells per well in 96‐well plates and incubated with phorbol 12‐myristate 13‐acetate (PMA) (50 ng/mL) for 72 h (37°C and 5% CO2) to differentiate them into macrophages. After that, the culture medium was removed and the cells were treated with the reported selenoesters at different increasing concentrations ranging from 1 to 200 µM for 48 h at 37°C and 5% of CO2. Macrophages treated with DMSO (1%) were used as controls, and the compounds were dissolved in DMSO at a stock concentration of 10^−2 M. Afterward, the MTT assay was performed. Data were obtained from three independent experiments performed in triplicate. The absorbance was measured at 550 nm using a MultiskanEX photometric plate reader for microplates. The CC50 values were calculated using OriginPro 8.5.1. software by nonlinear curve fitting. SIs were calculated as the ratio of the CC50 values determined for the macrophages and the IC50 values obtained in each Leishmania promastigote. GraphPad Prism 7.0 Software was used to obtain the corresponding graphs.

T1 sequence (P00915 whole entry): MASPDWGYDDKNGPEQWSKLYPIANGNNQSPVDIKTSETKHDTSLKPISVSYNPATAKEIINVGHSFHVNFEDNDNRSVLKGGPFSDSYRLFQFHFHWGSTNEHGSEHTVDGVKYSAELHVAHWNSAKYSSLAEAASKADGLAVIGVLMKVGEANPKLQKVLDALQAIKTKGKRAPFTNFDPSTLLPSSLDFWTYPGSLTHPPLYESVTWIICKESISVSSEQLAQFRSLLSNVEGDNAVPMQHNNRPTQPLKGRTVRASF

By Ki is commonly meant a dissociation constant, usually derived from enzyme kinetics or from competition with a known ligand. Lower therefore signals higher affinity. For orientation: GI50 means the concentration giving 50% growth inhibition. Turning to `N#Cc1ccc(NC(=O)C[Se]C(=O)c2ccccc2)cc1C(F)(F)F` [Compound 1, Se‐(2‐((4‐cyano‐3‐(trifluoromethyl)phenyl)amino)‐2‐oxoethyl)benzoselenoate], the Ki is greater than 100 µM in data set [1], 57.2 µM in data set [2] and 51.1 µM in data set [3]. In addition, the “mean TGI values against all the subpanels tested” value in data set [4] was “below 5 µM”. The GI50 in [5] is 1.36 µM; in [6], 0.64 µM; in [7] it was 0.89 µM. Further, in data set [5], the LC50 (50% lethal concentration) is 5.49 µM.
Regarding `O=C(C[Se]C(=O)c1ccco1)Nc1ccc([N+](=O)[O-])c(C(F)(F)F)c1` [Compound 5, Se‐(2‐((4‐nitro‐3‐(trifluoromethyl)phenyl)amino)‐2‐oxoethyl)furan‐2‐carboselenoate], the Ki was greater than 100 µM in data set [1], 21.1 µM in data set [2] and 72.6 µM in [3]. Also, the GI50 in [5] amounted to 1.7 µM. The “cytotoxicity against OVCAR‐5” value in [8] was “remarkable cytotoxicity”.
On to `O=C(C[Se]C(=O)c1ccccc1)Nc1ccc([N+](=O)[O-])c(C(F)(F)F)c1` [Compound 2, Se‐(2‐((4‐nitro‐3‐(trifluoromethyl)phenyl)amino)‐2‐oxoethyl)benzoselenoate], for which the Ki in data set [1] was greater than 100 µM; in data set [2], 76.3 µM; in data set [3], 91.5 µM. Also, in [4], the “mean TGI values against all the subpanels tested” value is “below 5 µM”. Further, the GI50 in data set [5] was determined as 1.24 µM; in data set [6], 0.28 µM; in [7] it was 0.8 µM; in data set [9], 0.86 µM; in [10], 0.83 µM. For the same molecule, the LC50 (50% lethal concentration) in [5] stood at 5.37 µM. In addition, in [6], the “TGI HS 578 T” value came to 0.89 µM.
Consider `O=C(C[Se]C(=O)c1ccco1)Nc1cccc(OC(F)(F)F)c1` [Compound 6, Se‐(2‐oxo‐2‐((3‐(trifluoromethoxy)phenyl)amino)ethyl)furan‐2‐carboselenoate], for which the Ki in data set [1] is greater than 100 µM; in data set [2], 35.9 µM; in [3], 9.6 µM. Besides, the “behaviour in HL‐60(TB)” value in [11] was “cytotoxic behavior”. Moreover, the GI50 in data set [4] (Homo sapiens, read-out: mean GI50 values in all the cancer subpanels tested) is less than 10 µM; in data set [5], 4.95 µM.
Broadly, the CC50 is the concentration at which the toxic effect on the cells reaches its halfway point. A low value points to greater toxicity to the cells. With `O=C(C[Se]C(=O)c1ccccc1)Nc1cccc(OC(F)(F)F)c1` [Compound 3, Se‐(2‐oxo‐2‐((3‐(trifluoromethoxy)phenyl)amino)ethyl)benzoselenoate], the Ki was greater than 100 µM in [1], 80.2 µM in data set [2] and 17.4 µM in data set [3]. Moreover, the “behaviour in HT29” value in data set [12] is reported as “potent cytotoxic activity”. The GI50 in data set [5] amounted to 2.33 µM. Further, the LC50 (50% lethal concentration) in [5] worked out at 13.6 µM. The same molecule gave a CC50 in [13] greater than 200 µM.
